Reference: patent US20210330821A1, “METHODS OF MAKING PROSTATE CANCER TREATMENT DECISIONS” (priority 2018, published 2021)

Assay: OSPREY safety: drug-related adverse events after 18F-DCFPyL
Assay type: in vivo, human
Procedure: The coprimary endpoints of sensitivity and specificity of ^18F-DCFPyL PET/CT for detecting pelvic lymph node metastases were evaluated in Cohort A. Secondary endpoints included safety in both cohorts, positive predictive value (PPV) and negative predictive value (NPV) in Cohort A, and sensitivity and PPV in Cohort B. Three central, blinded, and independent readers evaluated the ^18F-DCFPyL scans. Histopathology served as the reference standard to which imaging findings were compared. FIG. 1 provides information regarding the study design and cohorts.
Co-primary endpoints of specificity and sensitivity of ^18F-DCFPyL PET/CT for detecting prostate cancer metastases in pelvic lymph nodes were evaluated in Cohort A. Key secondary endpoints included incidence of adverse events, positive predictive value (PPV) and negative predictive value (NPV) of ^18F-DCFPyL PET/CT imaging to detect pelvic lymph node metastases in Cohort A, sensitivity and PPV of ^18F-DCFPyL PET/CT imaging to detect prostate cancer within sites of metastasis or recurrence in Cohort B. Three central, blinded, and independent readers evaluated the ^18F-DCFPyL scans. Imaging findings were compared to histopathology as the truth standard.
Pts underwent image-guided biopsy.

## O=C(O)CC[C@H](NC(=O)N[C@@H](CCCCNC(=O)c1ccc([18F])nc1)C(=O)O)C(=O)O [18F-DCFPyL]
Cohort B, 117 men, dysgeusia and generalized rash
  Cohort B pts who experienced ≥1 drug-related AE: 1.7%
Cohort B, dysgeusia and generalized rash
  Severity of drug-related AEs: mild (Grade 1)
Both cohorts
  Dysgeusia (drug-related adverse event): 2.1%
  Headache (drug-related adverse event): 2.1%
Both cohorts, 385 men
  Drug-related serious adverse events: No drug-related serious adverse events were observed
  Men who experienced ≥1 drug-related adverse event: 7.0%
Patients with PCa, OSPREY
  Tolerability: generally well tolerated
